According to patent US20230271950A1, “ANTIBACTERIAL PICOLINAMIDE COMPOUNDS” (University of Notre Dame Du Lac, priority 2020, published 2023):
In brackets after ≈: the same amount, converted by molar mass. Where two headings read alike, the source gives them in different places.

Experiments:
[1] = Pharmacokinetics study in mice (plasma and feces levels); type: in vivo; settings: for concentration at 8 h: female, CD-1, mouse
Description: Pharmacokinetics (PK) study. Mice (n=2 per time point) were given a single 100 μL solution of 5 mg/mL of compound 1 (equivalent to 20 mg/kg). Terminal blood was collected in heparinized syringes by cardiac puncture at 30 min, 1 h, 2 h, 4 h, and 8 h. The two mice at the 8-h time point were place in metabolism cages for collection of feces. Compound 1 was dissolved in 5% DMSO/95% water with 96 mg/mL of sodium bicarbonate. Blood was centrifuged at 1,000 g for 20 min at 4° C. and plasma was separated and stored at −80° C. until analysis. A 45-μL aliquot of plasma was mixed with 5 μL of H2O:ACN (1:1) and was quenched with 100 μL of acetonitrile containing 20 μM of internal standard (compound 10). The sample was centrifuged at 21,000 g for 15 min at 4° C. to precipitate the proteins, and the resulting supernatant was analyzed by UPLC-TQD detector using multiple-reaction monitoring (MRM). Calibration curves for compound 1 were prepared from 0 to 102.4 μM using a control mouse plasma (50 μL). Peak area ratios relative to internal standard and linear regression was used from which the concentrations in plasma samples from the PK study were determined.
An average of 250 mg of feces were collected at 8 h from two mice, and subsequently homogenized with 6 times the feces volume (1,500 μL of H2O:ACN 1:1) using a Bullet Blender (Next Advance, Inc., Troy, N.Y.). The homogenate was centrifuged at 21,000 g for 5 min. The fecal supernatant (72 μL) was mixed with 8 μL of a solution of H2O:ACN (1:1) and 40 μL of 50 μM of the internal standard in ACN with 0.5% formic acid. A calibration curve was prepared from 0 μM to 102.4 μM in control mouse feces. Plasma and feces were analyzed on a Waters TQD tandem quadrupole detector (Waters Corporation, Milford, Mass.) using a YMC-Triart C18 100 mm×2.0 mm column (3μ, YMC Co. Ltd, Kyoto, Japan). The chromatographic conditions consisted of elution with 30% H2O/70% ACN containing 0.10% formic acid for 5 min at a flow rate 0.5 mL/min. Mass Spectrometry acquisition was performed in the positive electrospray ionization mode with MRM. The capillary, cone, extractor and RF lens voltages were set at 2.8 kV, 40 V, 1 V and 0.1 V, respectively. The desolvation and cone gas (nitrogen) flow rates were 650 L/h and 50 L/h, respectively. The source temperature was set at 150° C. The desolvation temperature was 350° C. The MRM transitions used were 459.4→254.0 for compound 1, and 294.8→133.5 for the internal standard.
Animals. Female C57BL/6 mice weighing 18-20 g and 6-8 weeks of age were used for the efficacy study (Jackson, Bar Harbor, Me.). Female CD-1 mice (24-31 g and 7-8 weeks of age) were used for the PK study. They were housed in groups of five mice in sterile polycarbonate shoeboxes with bedding consisting of ¼-inch corncob (The Andersons Ind., Maumee, Ohio) and Alpha-Dri (Shepherd Specialty Papers, Inc., Richland, Mich.). Mice were maintained on a 12-h light/dark cycle at 72° F. and were given Teklad 2918 irradiated extruded rodent diet and water ad libitum. All procedures were performed in accordance with and approved by the University of Notre Dame Institutional Animal Care and Use Committee.
Pharmacokinetics (PK) Studies. Compounds 4, 87, 107, and 108 were dissolved in 10% DMSO, 25% propylene glycol, 15% Tween 80 and 50% water at concentrations of 5 mg/mL or 10 mg/mL. Compound 116 was dissolved in 5% DMSO, 95% water with 96 mg/mL of sodium bicarbonate. Mice (n=2 per time point) were given a single 100 μL oral gavage of the test compound (equivalent to either 10 mg/kg and/or 20 mg/kg), and terminal blood was collected in heparinized syringes by cardiac puncture at 30 min, 1 h, 2 h, 4 h, and 8 h. An average of 250 mg of feces were collected after 8 h from two mice housed in metabolism cages in each group for further analysis. Blood was centrifuged at 1000 g for 2 min at 4° C. to obtain plasma. Plasma and fecal samples were stored at −80° C. until analysis. […]

[2] = test system: stationary-phase C. difficile; test: Time-kill assay, stationary-phase C. difficile; type: cell-based, Clostridioides difficile; settings: 8×, 16×, and 32×MIC
Description: Time-kill assay. […] A control tube without antibiotic was also included. At intervals of 4, 8, and 24 h, 100-μL aliquots of the cultures were plated onto pre-reduced brain heart infusion broth agar media for colony counts. […] The experiment was done in triplicate.

[3] = test system: C. difficile strain ATCC43255; test: Serial passage for development of resistance; type: cell-based, Clostridioides difficile; settings: for increase of MIC on serial passage: C. difficile ATCC43255, 25 passages; for MIC: Clostridioides difficile
C. difficile ATCC43255 = test: Scanning-electron microscopy of C. difficile vegetative cells; type: cell-based, Clostridioides difficile; settings: compound 1 at 4× to 32×MIC; VAN at 4×MIC
Description: FIG. 2. Mechanism of action of compound 1. (A) Macromolecular biosynthesis assays: Compound 1 was incubated with C. difficile ATCC43255 at 0.5×MIC. […] The incubation time was 60 min for DNA, 120 min for peptidoglycan synthesis and RNA, and 180 min for protein synthesis. (B-G) Imaging of C. difficile […] vegetative cells (logarithmic growth) by scanning electron microscopy.
Scanning-electron microscopy. […] Following incubation, the cells were washed with PBS (3×) and applied onto poly-1-lysine (Santa Cruz Biotechnology, Dallas, Tex.) coated microglass coverslips (Electron Microscopy Sciences, Hatfield, Pa.) and incubated for 15 min. The cells were fixed for 1 h with 2% glutaraldehyde, followed by a wash (3×) with sodium cacodylate buffer at pH 7.4. The samples were fixed with 1% osmium tetroxide for 1 h and rinsed (3×) in the buffer. The samples were then put through a graded ethanol series for dehydration, followed by critical point drying. The samples were then mounted on SEM stubs and sputter-coated with iridium. Microscopy and imaging were performed on a Magellan 400 XHR instrument (FEI, Hillsboro, Oreg.).

CDI = settings: patients treated with the antibiotic; cited from earlier work
ESKAPE panel = test: MIC against the ESKAPE panel; type: cell-based; settings: E. faecium, S. aureus, K. pneumoniae, A. baumannii, P. aeruginosa, Enterobacter species
Description: Minimum-inhibitory Concentration Determination. MICs for C. difficile strains and other gut bacteria were determined with the broth microdilution method as previously described (J. Antimicrob. Chemother. 2013, 68, 515). ESKAPE panel and MRSA MICs were determined as described in the Clinical & Laboratory Standards Institute guidelines.

[4] = single oral gavage, dose 20 mg · kg^−1, feces collected after 8 h, read-out: Drug concentration in fecal samples (mg kg^−1 feces)
[5] = 20 mg/kg single oral administration

Row | SMILES | Conc. feces/MIC ([1]; dose 20 mg · kg^−1) | concentration at 8 h [1, 4] [ng/g] | reduction of C. difficile stationary-phase growth [2] [log10] | increase of MIC on serial passage [3] [fold] | cell surface by scanning-electron microscopy (C. difficile ATCC43255) | Recurrence of CDI (CDI) [%] | also measured
1 | O=C(Nc1ncco1)c1cc(Oc2cccc(OC(F)(F)F)c2)ccn1 [Compound 108, N-(Oxazol-2-yl)-4-(3-(trifluoromethoxy)phenoxy)picolinamide] | 49 | 49000 | – | – | – | – | –
2 | O=C(Nc1ncco1)c1cc(-c2ccc(Cl)c(Cl)c2)ccn1 [Compound 87, 4-(3,4-Dichlorophenyl)-N-(oxazol-2-yl)picolinamide] | – | – | – | – | – | – | Conc. feces/MIC ([1]; dose 10 mg · kg^−1): 6.6; concentration at 8 h ([1]; single oral gavage, dose 10 mg · kg^−1, feces collected after 8 h, read-out: Drug concentration in fecal samples (mg kg^−1 feces)): 790 ng/g
3 | O=C(O)c1ccc2oc(NC(=O)c3cc(Oc4cccc(OC(F)(F)F)c4)ccn3)nc2c1 [Compound 1, Sodium 2-(4-(3-(trifluoromethoxy)phenoxy)picolinamido)benzo[d]oxazole-5-carboxylate] | 108 | – | 2 | 8 | bleb formation on the surface was evident | – | Concentrations in plasma [1, 5]: non-quantifiable; levels in feces higher than the MIC for C. difficile ATCC 43255 [1, 5]: > 100 fold; concentration at 8 h ([1]; 20 mg/kg single oral administration, feces collected at 8 h, read-out: levels in feces): 13000 ng/g; Drug concentration in fecal samples (mg kg^−1 feces) ([1]; single oral gavage, dose 20 mg · kg^−1, feces collected after 8 h): 13 mg/kg; MIC ([3]; ATCC43255, read-out: MIC after serial passage): 1 µg/mL; MIC ([3]; ATCC43255, read-out: starting MIC in serial passage): 0.125 µg/mL
4 | CN[C@H](CC(C)C)C(=O)N[C@H]1C(=O)N[C@@H](CC(N)=O)C(=O)N[C@H]2C(=O)N[C@H]3C(=O)N[C@H](C(=O)N[C@H](C(=O)O)c4cc(O)cc(O)c4-c4cc3ccc4O)[C@H](O)c3ccc(c(Cl)c3)Oc3cc2cc(c3O[C@@H]2O[C@H](CO)[C@@H](O)[C@H](O)[C@H]2O[C@H]2C[C@](C)(N)[C@H](O)[C@H](C)O2)Oc2ccc(cc2Cl)[C@H]1O [VAN, vancomycin, reference compound] | – | – | 1 | 8 | altered | 25 | MIC ([3]; C. difficile ATCC43255, sub-MIC concentrations, 25 passages, read-out: MIC after serial passage): 4 µg/mL (≈ 2.76 µM)
5 | O=C(Nc1ncco1)c1ccnc(-c2ccc(Cl)c(Cl)c2)c1 [Compound 4, 2-(3,4-Dichlorophenyl)-N-(oxazol-2-yl)isonicotinamide] | 11 | 2800 | – | – | – | – | activity against the ESKAPE panel (ESKAPE panel): active only against the Gram-positive members of the panel
6 | CCc1c(Cl)c(O)c(Cl)c(O)c1C(=O)O[C@H]1[C@H](O)[C@H](OC)[C@H](OC/C2=C\C=C\C[C@H](O)/C(C)=C/[C@H](CC)[C@@H](O[C@@H]3OC(C)(C)[C@@H](OC(=O)C(C)C)[C@H](O)[C@@H]3O)/C(C)=C/C(C)=C/C[C@@H]([C@@H](C)O)OC2=O)O[C@@H]1C [FDX, fidaxomicin, reference compound] | – | – | – | – | – | 15 | –
